Tests used:
[1] = test system: formalin-induced pain response (flinching); experiment: Formalin paw test in the mouse or rat; type: in vivo; settings: 30 mg/kg p.o.; intraplantar 5% formalin
Experimental: 1. Formalin paw test in the mouse or rat accorrding to Wheeler-Aceto et al., (Psychopharmacology 1991, 104: 35-44): Animals are given an intraplantar injection of 5% formalin (25 μl for the mouse, 50 μl for the rat) into the posterior left paw. This treatment induces a recognizable flinching response in control animals. The number of flinches is counted for 10 minutes, beginning immediately after injection of formalin (early phase) and again for 5 minutes in mice or 15 minutes in rats, beginning 20 minutes after the injection.

[2] = test system: writhing response induced by phenylbenzoquinone (PBQ) or acetic acid; experiment: Phenylbenzoquinone and acetic writhing tests in mice; type: in vivo, mouse; settings: 30 mg/kg p.o., PBQ 1.25 mg/kg i.p. or acetic acid 0.5% i.p.
Experimental: 5. Phenylbenzoquinone and acetic writhing tests in mice follow the methods described by Hendershot et al (J. Pharmacol. Exp. Ther. 1959, 125: 237-240): Mice are injected with phenylbenzoquinone (PBQ) (1.25 mg/kg i.p.) or acetic acid (0.5% i.p.). This treatment induces a recognizable writhing response in control animals. The number of writhes is counted for 10 minutes beginning 5 minutes after injection of PBQ or acetic acid.

## Cl.N#Cc1ccc2[nH]cc(CCCCN3CCN(c4ccc5oc(C(N)=O)cc5c4)CC3)c2c1 [1-[4-(5-cyanoindol-3-yl)butyl]-4-(2-carbamoyl-benzofuran-5-yl)-piperazine hydrochloride]
[1]
  reduction of the formalin-induced pain response: 79%
[2]
  reduction of writhes: 82%
